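GI50: concentration for 50% inhibition of growth. TGI denotes the concentration required for complete inhibition of growth.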
Assays:
Assay in all cases: inhibition of tumour cell growth, NCI panel, 384-well format
786-0 renal = test system: 786-0 renal
A498 renal = test system: A498 renal
A549 NSCLC = test system: A549 NSCLC
ACHN renal = test system: ACHN renal
BT-549 breast = test system: BT-549 breast
CAKI-1 renal = test system: CAKI-1 renal
CCRF-CEM leukemia = test system: CCRF-CEM leukemia
COLO 205 colon = test system: COLO 205 colon
DU-145 prostate = test system: DU-145 prostate
EKVX NSCLC = test system: EKVX NSCLC
HCC-2998 colon = test system: HCC-2998 colon
HCT-15 colon = test system: HCT-15 colon
HL-60(TB) leukemia = test system: HL-60(TB) leukemia
HOP-62 NSCLC = test system: HOP-62 NSCLC
HOP-92 NSCLC = test system: HOP-92 NSCLC
HS 578T breast = test system: HS 578T breast
HT29 colon = test system: HT29 colon
IGROV1 ovarian = test system: IGROV1 ovarian
K-562 leukemia = test system: K-562 leukemia
KM12 colon = test system: KM12 colon
LOX IMVI melanoma = test system: LOX IMVI melanoma
M14 melanoma = test system: M14 melanoma
MALME-3M melanoma = test system: MALME-3M melanoma
MCF7 breast = test system: MCF7 breast
MDA-MB-231 breast = test system: MDA-MB-231 breast
MDA-MB-435 melanoma = test system: MDA-MB-435 melanoma
MDA-MB-468 breast = test system: MDA-MB-468 breast
MOLT-4 leukemia = test system: MOLT-4 leukemia
NCI-H226 lung = test system: NCI-H226 lung
NCI-H23 lung = test system: NCI-H23 lung
NCI-H322M lung = test system: NCI-H322M lung
NCI-H460 NSCLC = test system: NCI-H460 NSCLC
NCI-H522 lung = test system: NCI-H522 lung
NCI/ADR-RES ovarian = test system: NCI/ADR-RES ovarian
OVCAR-3 ovarian = test system: OVCAR-3 ovarian
OVCAR-4 ovarian = test system: OVCAR-4 ovarian
OVCAR-5 ovarian = test system: OVCAR-5 ovarian
OVCAR-8 ovarian = test system: OVCAR-8 ovarian
PC-3 prostate = test system: PC-3 prostate
RPMI-8226 leukemia = test system: RPMI-8226 leukemia
RXF 393 renal = test system: RXF 393 renal
SF-268 CNS = test system: SF-268 CNS
SF-295 CNS = test system: SF-295 CNS
SF-539 CNS = test system: SF-539 CNS
SK-MEL-28 melanoma = test system: SK-MEL-28 melanoma
SK-MEL-5 melanoma = test system: SK-MEL-5 melanoma
SK-OV-3 ovarian = test system: SK-OV-3 ovarian
SN12C renal = test system: SN12C renal
SNB-19 CNS = test system: SNB-19 CNS
SNB-75 CNS = test system: SNB-75 CNS
SR leukemia = test system: SR leukemia
SW-620 colon = test system: SW-620 colon
T-47D breast = test system: T-47D breast
TK-10 renal = test system: TK-10 renal
UACC-257 melanoma = test system: UACC-257 melanoma
UACC-62 melanoma = test system: UACC-62 melanoma
UO-31 renal = test system: UO-31 renal

`C=CC(=O)N[C@H]1C=C(C)c2c(-c3cnc4ccccc4c3)c3c(N)ncnc3n2C1` was tested, and the GI50 ([…]-0 renal) was 12.7 µM, the TGI (786-0 renal) was 28.8 µM and the GI50 (A498 renal) was 2.11 µM. For the same molecule, the TGI (A498 renal) was 20.1 µM, the GI50 (A549 NSCLC) was 11.1 µM and the TGI (A549 NSCLC) was 30.2 µM. The GI50 (ACHN renal) was 0.378 µM, the TGI (ACHN renal) was 18 µM and the GI50 (BT-549 breast) was 16.8 µM. For the same molecule, the TGI (BT-549 breast) was 35.7 µM, the GI50 (CAKI-1 renal) was 3.49 µM and the TGI (CAKI-1 renal) was 21.3 µM. The GI50 (CCRF-CEM leukemia) was 14.9 µM, the TGI (CCRF-CEM leukemia) was 28.2 µM and the GI50 (COLO 205 colon) was 26.2 µM. For the same molecule, the TGI (COLO 205 colon) was 70.4 µM, the GI50 (DU-145 prostate) was 14.1 µM and the TGI (DU-145 prostate) was 44.9 µM. The GI50 (EKVX NSCLC) was 0.312 µM, the TGI (EKVX NSCLC) was 25.5 µM and the GI50 (HCC-2998 colon) was 19.3 µM. For the same molecule, the TGI (HCC-2998 colon) was 35.1 µM, the GI50 (HCT-15 colon) was 25.2 µM and the TGI (HCT-15 colon) was 82 µM. The GI50 (HL-60(TB) leukemia) was 26.7 µM, the TGI (HL-60(TB) leukemia) was 41.6 µM and the GI50 (HOP-62 NSCLC) was 17.1 µM. It also gave a TGI (HOP-62 NSCLC) of 76 µM, a GI50 (HOP-92 NSCLC) of 10.2 µM and a TGI (HOP-92 NSCLC) of 33.1 µM. It also gave a GI50 (HS 578T breast) of 12.8 µM, a TGI (HS 578T breast) of 26.4 µM and a GI50 (HT29 colon) of 17.5 µM. It also gave a TGI (HT29 colon) of 58.5 µM, a GI50 (IGROV1 ovarian) of 0.683 µM and a TGI (IGROV1 ovarian) of 8.36 µM. For the same molecule, the GI50 (K-562 leukemia) was 23.9 µM, the TGI (K-562 leukemia) was 80.6 µM and the GI50 (KM12 colon) was 18.8 µM. It also gave a TGI (KM12 colon) of 36.3 µM, a GI50 (LOX IMVI melanoma) of 14.7 µM and a TGI (LOX IMVI melanoma) of 28.1 µM. The GI50 (M14 melanoma) was 13.2 µM, the TGI (M14 melanoma) was 31.9 µM and the GI50 (MALME-3M melanoma) was 11.7 µM. The TGI (MALME-3M melanoma) was 24.1 µM, the GI50 (MCF7 breast) was 19.7 µM and the TGI (MCF7 breast) was over 100 µM. For the same molecule, the GI50 (MDA-MB-231 breast) was 13.7 µM, the TGI (MDA-MB-231 breast) was 35.4 µM and the GI50 (MDA-MB-435 melanoma) was 31 µM. It also gave a TGI (MDA-MB-435 melanoma) of 87 µM, a GI50 (MDA-MB-468 breast) of 0.0243 µM and a TGI (MDA-MB-468 breast) of 0.0646 µM. For the same molecule, the GI50 (MOLT-4 leukemia) was 5.47 µM, the TGI (MOLT-4 leukemia) was 17.5 µM and the GI50 (NCI-H226 lung) was 5.39 µM. It also gave a TGI (NCI-H226 lung) of 26.3 µM, a GI50 (NCI-H23 lung) of 18.2 µM and a TGI (NCI-H23 lung) of 40.6 µM. It also gave a GI50 (NCI-H322M lung) of 0.109 µM, a TGI (NCI-H322M lung) of 16.4 µM and a GI50 (NCI-H460 NSCLC) of 14.8 µM. It also gave a TGI (NCI-H460 NSCLC) of 30 µM, a GI50 (NCI-H522 lung) of 0.242 µM and a TGI (NCI-H522 lung) of 9.32 µM. The GI50 (NCI/ADR-RES ovarian) was 34.1 µM, the TGI (NCI/ADR-RES ovarian) was over 100 µM and the GI50 (OVCAR-3 ovarian) was 7.32 µM. The TGI (OVCAR-3 ovarian) was 24.9 µM, the GI50 (OVCAR-4 ovarian) was 16.2 µM and the TGI (OVCAR-4 ovarian) was 65.5 µM. For the same molecule, the GI50 (OVCAR-5 ovarian) was 26.2 µM, the TGI (OVCAR-5 ovarian) was 74.1 µM and the GI50 (OVCAR-8 ovarian) was 15.8 µM. It also gave a TGI (OVCAR-8 ovarian) of 35 µM, a GI50 (PC-3 prostate) of 34.1 µM and a TGI (PC-3 prostate) of 98.8 µM. For the same molecule, the GI50 (RPMI-8226 leukemia) was 10 µM, the TGI (RPMI-8226 leukemia) was 22.1 µM and the GI50 (RXF 393 renal) was 10 µM. The TGI (RXF 393 renal) was 27.7 µM, the GI50 (SF-268 CNS) was 15.1 µM and the TGI (SF-268 CNS) was 45.6 µM. It also gave a GI50 (SF-295 CNS) of 29.5 µM, a TGI (SF-295 CNS) of over 100 µM and a GI50 (SF-539 CNS) of 15.1 µM. For the same molecule, the TGI (SF-539 CNS) was 29.3 µM, the GI50 (SK-MEL-28 melanoma) was 14.2 µM and the TGI (SK-MEL-28 melanoma) was 46.2 µM. The GI50 (SK-MEL-5 melanoma) was 13.2 µM, the TGI (SK-MEL-5 melanoma) was 26 µM and the GI50 (SK-OV-3 ovarian) was 1.61 µM. It also gave a TGI (SK-OV-3 ovarian) of 15.1 µM, a GI50 (SN12C renal) of 15.6 µM and a TGI (SN12C renal) of 63.9 µM. The GI50 (SNB-19 CNS) was 27 µM, the TGI (SNB-19 CNS) was 73.3 µM and the GI50 (SNB-75 CNS) was 17.6 µM. For the same molecule, the TGI (SNB-75 CNS) was 45.9 µM, the GI50 (SR leukemia) was 2.45 µM and the TGI (SR leukemia) was 10.9 µM. It also gave a GI50 (SW-620 colon) of 28.5 µM, a TGI (SW-620 colon) of 61.6 µM and a GI50 (T-47D breast) of 11.5 µM. For the same molecule, the TGI (T-47D breast) was 82 µM, the GI50 (TK-10 renal) was 0.228 µM and the TGI (TK-10 renal) was 10.6 µM. It also gave a GI50 (UACC-257 melanoma) of 18.9 µM, a TGI (UACC-257 melanoma) of 48 µM and a GI50 (UACC-62 melanoma) of 6 µM. For the same molecule, the TGI (UACC-62 melanoma) was 18.9 µM, the GI50 (UO-31 renal) was 12.2 µM and the TGI (UO-31 renal) was over 100 µM.

From PubChem BioAssay (NCI)
